Laboratory results published in ChEMBL document CHEMBL1817568, “Novel hybrids of fluconazole and furanones: design, synthesis and antifungal activity” (2011).
Converted amounts (≈) assume the structure as drawn. The source made the active and inactive calls. The calls are words filed in the database; no cut-off is given here.

Legend:
Candida albicans [1] = assay: Antifungal activity against Candida albicans ATCC 24433 at 128 ug/ml by broth dilution method; assay type: functional, organism-based
Pichia kudriavzevii [2] = assay: Antifungal activity against Candida krusei ATCC 6258 at 128 ug/ml by broth dilution method; assay type: functional, organism-based
Candida tropicalis [3] = assay: Antifungal activity against Candida tropicalis ATCC 750 at 128 ug/ml by broth dilution method; assay type: functional, organism-based
Cryptococcus neoformans [4] = assay: Antifungal activity against Cryptococcus neoformans ATCC 34664 at 128 ug/ml by broth dilution method; assay type: functional, organism-based
Nakaseomyces glabratus [5] = assay: Antifungal activity against Candida glabrata ATCC 90030 at 128 ug/ml by broth dilution method; assay type: functional, organism-based
Aspergillus niger [6] = assay: Antifungal activity against Aspergillus niger ATCC 16404 at 128 ug/ml by broth dilution method; assay type: functional, organism-based
Aspergillus fumigatus [7] = assay: Antifungal activity against Aspergillus fumigatus ATCC 46645 at 128 ug/ml by broth dilution method; assay type: functional, organism-based
Fusarium proliferatum [8] = assay: Antifungal activity against Fusarium proliferatum ATCC 10052 at 128 ug/ml by broth dilution method; assay type: functional, organism-based
Candida albicans [9] = assay: Antifungal activity against Candida albicans ATCC 24433 by broth dilution method; assay type: functional
Nakaseomyces glabratus [10] = assay: Antifungal activity against Candida glabrata ATCC 90030 by broth dilution method; assay type: functional
Pichia kudriavzevii [11] = assay: Antifungal activity against Candida krusei ATCC 6258 by broth dilution method; assay type: functional
Candida tropicalis [12] = assay: Antifungal activity against Candida tropicalis ATCC 750 by broth dilution method; assay type: functional
Cryptococcus neoformans [13] = assay: Antifungal activity against Cryptococcus neoformans ATCC 34664 by broth dilution method; assay type: functional
Aspergillus niger [14] = assay: Antifungal activity against Aspergillus niger ATCC 16404 by broth dilution method; assay type: functional
Aspergillus fumigatus [15] = assay: Antifungal activity against Aspergillus fumigatus ATCC 46645 by broth dilution method; assay type: functional
Fusarium proliferatum [16] = assay: Antifungal activity against Fusarium proliferatum ATCC 10052 by broth dilution method; assay type: functional

MIC50 (Candida albicans [9]) | MIC50 (Nakaseomyces glabratus [10]) | MIC50 (Pichia kudriavzevii [11]) | MIC50 (Candida tropicalis [12]) | MIC50 (Cryptococcus neoformans [13]) | MIC50 (Aspergillus niger [14]) | MIC50 (Aspergillus fumigatus [15]) | MIC50 (Fusarium proliferatum [16]) | Compound | Activity (Candida albicans [1]) | Activity (Pichia kudriavzevii [2]) | Activity (Candida tropicalis [3]) | Activity (Cryptococcus neoformans [4]) | Activity (Nakaseomyces glabratus [5]) | Activity (Aspergillus niger [6]) | Activity (Aspergillus fumigatus [7]) | Activity (Fusarium proliferatum [8])
 |  |  |  |  |  |  |  | COc1cc(CC(=O)O)ccc1OCC(O)(Cn1cncn1)c1ccc(F)cc1F (racemic) | inactive | inactive | inactive | inactive | inactive | inactive | inactive | inactive
0.25 µg/mL (≈ 0.271 µM) | 0.25 µg/mL (≈ 0.271 µM) | 0.5 µg/mL (≈ 0.541 µM) | 0.5 µg/mL (≈ 0.541 µM) | 0.5 µg/mL (≈ 0.541 µM) | 0.25 µg/mL (≈ 0.271 µM) | 0.5 µg/mL (≈ 0.541 µM) | 2 µg/mL (≈ 2.16 µM) | C[C@@H]1[C@H](O)[C@@H](C)/C=C/C=C/C=C/C=C/C=C/C=C/C=C/[C@H](O[C@@H]2O[C@H](C)[C@@H](O)[C@H](N)[C@@H]2O)C[C@@H]2O[C@](O)(C[C@@H](O)C[C@@H](O)[C@H](O)CC[C@@H](O)C[C@@H](O)CC(=O)O[C@H]1C)C[C@H](O)[C@H]2C(=O)O [AMPHOTERICIN B] |  |  |  |  |  |  |  | 
